In a melting point compilation (Tetko et al.):

Compound	melting point [°C]
Cc1sc(=O)n(CC(=O)O)c1C	186 to 188
O=C(O)COc1ccc(Br)cc1Cl	146 to 148
O=C(Nc1ccccc1)NC1CCNCC1	169 to 171
COc1cccc(NC(=O)COc2ccc(C(=O)O)cc2)c1	131 to 134
OCCCNc1ccncc1	98 to 100
CC(N)C(=O)Nc1ccc(-n2cncn2)cc1 (configuration not stated)	169 to 171
NC(=O)CCCOc1ccc(F)cc1	125 to 127
O=C(O)CCc1ccc2c(c1)OCCCO2	81 to 83
CCN1C(=O)CC(=O)NC1=O	118 to 120
O=C(C1OCCc2ccccc21)N1CCCC1 (configuration not stated)	109 to 111
CCCC(=O)c1cccc([N+](=O)[O-])c1	59 to 63
Cc1nnc(S)n1-c1ccccc1	224 to 226
Sc1nc(-c2cccs2)no1	108 to 110
Nc1ccc(C(=O)N2CCCCCC2)cc1	133 to 135
O=c1ccn(C2CC2)c(S)n1	238 to 240
O=C(O)CCNS(=O)(=O)c1ccc([N+](=O)[O-])cc1	150 to 152
CC(NC(=O)OCc1ccccc1)C(=O)N1CCNC(=O)C1 (configuration not stated)	154 to 156
O=C(O)c1cnc2ccc(Br)cc2c1O	274 to 276
CCC(=O)c1ccc(OCC(=O)O)cc1	131 to 133

Compound	melting point [°C]
Cc1nc(S)nc(O)c1CCO	263 to 265
O=C(O)c1ccc(OCC(F)(F)C(F)F)nc1	143 to 145
Cc1nnc(CO)s1	83 to 85
Oc1ccc(CNC2CCCCC2)cc1	105 to 107
CC(=O)c1ccc(NS(=O)(=O)c2ccc(C)cc2)cc1	170 to 172
CC(=O)N1CCc2ccc(S(=O)(=O)Cl)cc21	144 to 146
Nc1ccc(I)cc1O	104 to 106
C#CCN1CCC[C@H]1C(=O)O	151 to 153
CCOc1ccc(S(=O)(=O)Cl)cc1	40 to 45
Cc1ccc2c(c1C)OCCCC2=O	50 to 52
COC(=O)c1cc(F)cc(S(=O)(=O)Cl)c1Br	73 to 75
COCCCNC(=O)CC#N	63 to 65
CC(C)(C)NC(=O)CC1(C(=O)O)CCCC1	201 to 203
CC(=O)NC(C)(C)C(=O)O	190 to 192
O=C(CSc1ccccc1C(=O)O)NC1CCCCCCC1	168 to 170
COc1ccc(CNC(=O)CCl)cc1C(=O)O	133 to 135
Cc1ncccc1C(=O)O	231 to 232
NC(=NO)c1cc2ccccc2o1	183 to 185
O=CC(Br)C=Nc1nccs1 (configuration not stated)	137 to 139

Compound	melting point [°C]
Cc1ccc(S(=O)(=O)N(C)C(C)C)cc1N	117 to 119
O=C(Nc1ccc(N2CCOCC2)nc1)OCC(F)(F)F	204 to 206
Cc1c(NS(=O)(=O)c2cc(C(=O)O)cc(Cl)c2Cl)c(=O)n(-c2ccccc2)n1C	155 to 157
COc1ccc(C(=O)c2ccccc2C(=O)O)cc1F	147 to 149
C#Cc1cccc(NCC(=O)N2CCOCC2)c1	185 to 187
O=C(O)c1cc(S(=O)(=O)Cl)ccc1Br	115 to 117
CC(C)(C)c1ccc(C(=O)N2CSCC2C(=O)O)cc1 (configuration not stated)	180 to 182
Nc1ccc(C(=O)N2CCOCC2)cc1	134 to 136
CCSc1ccccc1C(=O)O	135 to 137
O=C(O)CCn1nnc2ccccc2c1=O	195 to 197
Nc1ccc(Oc2cccc(F)c2)cc1	72 to 74
NNC(=O)Nc1cc(F)cc(F)c1	176 to 178
CCC(C#N)(CC)NC(=O)OC(C)(C)C	98 to 100
Nc1ccc(OC(F)F)c2ncccc12	119 to 121
NC(=O)C1CCCCN1C(=O)c1cccc(Br)c1 (configuration not stated)	177 to 179
Cn1c(=O)c2ccccc2n2cc3ccccc3c12	164 to 166
O=C(Nc1ccccc1C(=O)O)OCc1ccccc1	129 to 131
COc1cccc(C2CC(=O)CC(=O)C2)c1	131 to 133
O=C(CCl)Cc1ccc(F)cc1	127 to 129
